Results published in US12516010B2, “Crystal form of reduced coenzyme Q10 and preparation method therefor” ([…] BIOTECHNOLOGY (HAINAN) CO., LTD, priority 2023, dated 2026).

Experiments:
[1] = stability test: storage in a vacuum bag at 25° C. in the dark, HPLC analysis; type: physicochemical
Method: The crystal of reduced coenzyme Q10 obtained in Example 1 and the crystal obtained in Comparative Example 1 were each placed in a vacuum bag, and stored at 25° C. in the dark. The weight ratio of reduced coenzyme Q10 to oxidized coenzyme Q10 was calculated by the HPLC analysis, and the results are shown in Table 1.
Conditions for HPLC Analysis:
• Chromatographic column: (Agilent) ZORBAX Extend C18 4.6×150 mm, 5 um • Mobile phase: mobile phase A: acetonitrile, mobile phase B: isopropanol, mobile phase C: methanol • Detection wavelength: 290 nm • Flow rate: 1.5 mL/min • Column temperature: 35° C. • Injection concentration: 1 mg/mL • Injection volume: 20 μL

[2] = solubility in purified water; type: physicochemical; conditions: 25° C.

SMILES | weight ratio of reduced coenzyme Q10 to oxidized coenzyme Q10: oxidized coenzyme Q10 part ([1]; day 0, vacuum bag) | weight ratio of reduced coenzyme Q10 to oxidized coenzyme Q10: reduced coenzyme Q10 part ([1]; day 0, vacuum bag) | weight ratio of reduced coenzyme Q10 to oxidized coenzyme Q10: oxidized coenzyme Q10 part ([1]; day 15, vacuum bag) | weight ratio of reduced coenzyme Q10 to oxidized coenzyme Q10: reduced coenzyme Q10 part ([1]; day 15, vacuum bag) | weight ratio of reduced coenzyme Q10 to oxidized coenzyme Q10: oxidized coenzyme Q10 part ([1]; day 30, vacuum bag) | weight ratio of reduced coenzyme Q10 to oxidized coenzyme Q10: reduced coenzyme Q10 part ([1]; day 30, vacuum bag) | weight ratio of reduced coenzyme Q10 to oxidized coenzyme Q10: oxidized coenzyme Q10 part ([1]; day 180, vacuum bag) | weight ratio of reduced coenzyme Q10 to oxidized coenzyme Q10: reduced coenzyme Q10 part ([1]; day 180, vacuum bag) | weight ratio of reduced coenzyme Q10 to oxidized coenzyme Q10: oxidized coenzyme Q10 part ([1]; day 360, vacuum bag) | weight ratio of reduced coenzyme Q10 to oxidized coenzyme Q10: reduced coenzyme Q10 part ([1]; day 360, vacuum bag) | solubility in purified water [2] [% by weight]
COc1c(O)c(C)c(C/C=C(\C)CC/C=C(\C)CC/C=C(\C)CC/C=C(\C)CC/C=C(\C)CC/C=C(\C)CC/C=C(\C)CC/C=C(\C)CC/C=C(\C)CCC=C(C)C)c(O)c1OC [Comparative Example 1, reduced coenzyme Q10] | 0.65 | 98.20 | 1.63 | 97.10 | 5.47 | 93.40 | 8.8 | 89.60 | 17.0 | 82.0 | –
COc1c(O)c(C)c(C/C=C(\C)CC/C=C(\C)CC/C=C(\C)CC/C=C(\C)CC/C=C(\C)CC/C=C(\C)CC/C=C(\C)CC/C=C(\C)CC/C=C(\C)CCC=C(C)C)c(O)c1OC [Example 1, reduced coenzyme Q10] | 0.40 | 99.18 | 0.50 | 99.00 | 0.80 | 98.01 | 1.10 | 97.90 | 1.94 | 97.33 | 0.5
COc1c(O)c(C)c(C/C=C(\C)CC/C=C(\C)CC/C=C(\C)CC/C=C(\C)CC/C=C(\C)CC/C=C(\C)CC/C=C(\C)CC/C=C(\C)CC/C=C(\C)CCC=C(C)C)c(O)c1OC [Example 2, reduced coenzyme Q10] | – | – | – | – | – | – | – | – | – | – | 0.5
